Data reported in patent publication US11130960B2, “Methods for conferring or enhancing herbicide resistance on plants and/or alga with protoporphyrinogen oxidase variants” (FARM HANNONG CO., LTD., priority 2014, dated 2021).
“Also recorded” adds a separate entry of the source.

Experiments:
[1] = system: CyPPO8; assay: Growth of transformed BT3(ΔPPO) E. coli in LB liquid medium (OD600); format: cell-based, Halothece sp. PCC 7418; conditions: 37° C., OD600 over culture time
Method: In Example 3, herbicide resistance of respective BT3(ΔPPO) strains transformed with the wild-type AtPPO1, mutant AtPPO1, CyPPO2, CyPPO4 or CyPPO8 gene was investigated on agar media containing different herbicides, and in this Example, herbicide resistance of the strains was investigated in LB liquid media containing different herbicides.
HV-50 autoclave from Hirayama, HS2100A electronic scale from Hansung Instrument, CB-30V clean bench from Jeio Tech, JSI-200CL incubator from JSR, MQ-200 photometer from Apogee, and 1210 type UV-visible spectrophotometer from Thermo Fisher Scientific were used. The autoclave was used under conditions of 121° C. and 15 minutes, and the incubator was used at 37° C. with lighting of 160˜200 μmol m^−2s^−1 for a culture time of 13.5 hours. The UV-visible spectrophotometer was used at 600 nm.
Tiafenacil (M.W. 511.87 g/mol), Saflufenacil (M.W. 500.85 g/mol), and Fomesafen (M.W. 438.76 g/mol) used in the experiment were purchased from Dongbu Farm Hannong Co., Ltd, Sigma, and Sigma, respectively. […]
For seed culture of E. coli transformed with respective genes, single colonies thereof were cultured in 3 ml of LB broth containing chloramphenicol for 12 hours, and they were diluted with LB broth to absorbance (OD600) of 1.5. […] Absorbance (OD600) was measured using a spectrophotometer every 1.5 hours. […]

[2] = system: wild-type Arabidopsis thaliana (Col-0); assay: Seed germination / growth on ½ MS medium containing herbicide; format: in vivo; conditions: for germination / growth on herbicide medium after 2 weeks: ½ MS medium with 70 nM Tiafenacil
Method: (§1) To examine tiafenacil resistance of T2 generation seeds which survived under treatment of 1 μM tiafenacil, among the CyPPO2 and CyPPO8 transformants, Arabidopsis thaliana seeds were sown in ½ MS medium (1.125 g/L of MS salt, 10 g/L of sucrose, 7 g/L of Agar) containing 70 nM tiafenacil. […] Therefore, survival under 70 nM tiafenacil means that a plant has resistance against tiafenacil.
(§2) In Arabidopsis thaliana transformant including CyPPO2 or CyPPO8 gene, which was obtained by transformation using the plant transformation vector prepared in Example 6, the PPO activity-inhibiting herbicide-resistant gene and glufosinate-resistant gene are expressed at the same time. Therefore, it was examined whether cross-treatment of Arabidopsis thaliana transformant with two herbicides, namely, PPO activity-inhibiting herbicide and glufosinate is effective for weed control. To this end, seeds of CyPPO2 and BAR gene-inserted Arabidopsis thaliana transformant, or CyPPO8 and BAR gene-inserted Arabidopsis thaliana transformant were sterilized and treated at low temperature of 4° C. for 2 days. The seeds were sown in a ½ MS medium (Duchefa), a ½MS medium containing 70 nM Tiafenacil, a ½MS medium containing 50 uM glufosinate, or a ½MS medium containing 70 nM Tiafenacil and 50 uM glufosinate, and grown at 23° C. under 16 hour-light/8 hour-dark conditions for 7-14 days. Arabidopsis thaliana on the herbicide media was CyPPO2 or CyPPO8-transformed seed and the wild-type Col0 as a control, respectively. The transformant and the control were cultured on herbicide media. After 2 weeks, they were examined.
(§3) In Example 9, it was confirmed that Arabidopsis thaliana transformant prepared in the present invention has resistance against the two PPO-based herbicides, Tiafenacil and Saflufenacil at the same time, and therefore, it was tested whether the cross-treatment of Arabidopsis thaliana transformant with Tiafenacil and Saflufenacil is effective for weed control. To this end, seeds of CyPPO2 or CyPPO8 gene-inserted Arabidopsis thaliana transformant were sterilized and treated at low temperature of 4° C. for 2 days. The seeds were sown in a ½ MS medium, a ½MS medium containing 70 nM Tiafenacil, a ½MS medium containing 70 nM Saflufenacil, or a ½MS medium containing 35 nM Tiafenacil and 35 nM Saflufenacil, and grown at 23° C. under 16 hour-light/8 hour-dark conditions for 7-14 days. Arabidopsis thaliana on the herbicide media was CyPPO2 or CyPPO8-transformed seed and the wild-type Col0 as a control, respectively. The transformant and the control were cultured on herbicide media. After 2 weeks, they were examined.

[3] = system: CyPPO2 transformants; assay: as above; format: in vivo, Arabidopsis thaliana; conditions: for germination / growth on herbicide medium after 2 weeks: ½ MS medium with 70 nM Tiafenacil
Method: as §1, §2, §3

[4] = system: CyPPO8 transformants; assay: as above; format: in vivo, Arabidopsis thaliana; conditions: for germination / growth on herbicide medium after 2 weeks: ½ MS medium with 70 nM Tiafenacil
Method: as §1, §2, §3

[5] = system: mutant AtPPO1 transformant; assay: Seed germination on ½ MS medium containing herbicide; format: in vivo, Arabidopsis thaliana; conditions: ½ MS medium containing 70 nM tiafenacil
[6] = 70 nM Saflufenacil, or 35 nM Tiafenacil and 35 nM Saflufenacil

Compound	concentration by which the strain normally grew [1]	germination / growth on herbicide medium after 2 weeks [2, 6]	germination / growth on herbicide medium after 2 weeks [3, 6]	germination / growth on herbicide medium after 2 weeks [4, 6]	seed germination ([2]; ½ MS medium containing 50 nM tiafenacil)	seed germination ([2]; ½ MS medium containing 70 nM tiafenacil)	germination / growth on herbicide medium after 2 weeks ([2]; 50 uM glufosinate, or 70 nM Tiafenacil and 50 uM glufosinate)	seed germination [5]	germination / growth on herbicide medium after 2 weeks ([3]; CyPPO2 and BAR gene-inserted, 50 uM glufosinate, or both)	seed germination ([3]; ½ MS medium containing 70 nM tiafenacil, T2 generation lines no. 1 and 49)	germination / growth on herbicide medium after 2 weeks ([4]; CyPPO8 and BAR gene-inserted, 50 uM glufosinate, or both)	seed germination ([4]; ½ MS medium containing 70 nM tiafenacil, T2 generation lines no. 6, 16 and 40)
CC(C)N(C)S(=O)(=O)NC(=O)c1cc(-n2c(=O)cc(C(F)(F)F)n(C)c2=O)c(F)cc1Cl [Saflufenacil]	≤ 100 µM	not germinated	normally grew	normally grew								
COC(=O)CCNC(=O)C(C)Sc1cc(-n2c(=O)cc(C(F)(F)F)n(C)c2=O)c(F)cc1Cl (stereo not shown) [Tiafenacil]		not germinated	normally grew	normally grew	reduced seed germination	no normal seed germination and was killed; also recorded: showed no germination	not germinated	showed germination	normally grew	showed germination	normally grew	showed germination
CS(=O)(=O)NC(=O)c1cc(Oc2ccc(C(F)(F)F)cc2Cl)ccc1[N+](=O)[O-] [Fomesafen]	≤ 100 µM											
